# Legend:
# [1] = tested on: focal adhesion kinase (FAK), TNF; assay: FAK phosphorylation and TNF expression in activated PHA T cell blasts; format: cell-based, human; settings: Mg^2+-restricted conditions
# Protocol: FIG. 2: Extracellular magnesium promotes memory-specific activation via LFA-1. Glycolytic switch of human EM CD8 T cells (a) and naïve CD8 T cells (b) subsets upon injection of anti-CD3 Ab only, or anti-CD3 and anti-CD28 Ab, was assessed by metabolic flux analysis in medium containing either 1.2 mM Mg^2+, 0 mM Mg^2+, or medium which was reconstituted from 0 mM to 1.2 mM Mg^2+ immediately prior to activation (0→1.2 mM Mg^2+). (a) Results for human effector memory (EM) and (b) for human naïve CD8 T cells. Glycolytic switch was quantified by subtracting […] measurements. (c) Flow cytometric analysis of surface activation markers on human EM CD8 T cells 24 hours after activation by plate-bound anti-CD3 Ab and soluble anti-CD28 Ab, in 1.2 mM and 0 mM Mg^2+ media, respectively. (d) Abundance of inflammatory cytokines in corresponding EM CD8 T cell culture supernatants, determined by CBA. (e) CD11a (LFA-1) surface expression on human naïve and EM CD8 T cells as well PHA T cell blasts. Flow cytometry-based assessment of total LFA-1 expression assessed by mAb TS2/4 (f), closed conformation of αL by mAb HI111 (g), extended conformation of LFA-1 by mAb Kim127 (h), open head-piece conformation of LFA-1 by mAb m24 (i), phosphorylation of focal adhesion kinase (FAK) […] as well TNF expression (k)±TCR-induced activation in different extracellular Mg^2+ concentrations. […]
# MC38-OVA tumor cells = assay: Murine MC38-OVA tumor model, in vivo PD-1 blockade; settings: OVA immunized mice; 3 mM MgCl2 or NaCl i.t. every third day, 8 cycles; anti-PD-1 Ab or isotype 200 μg i.p. day 9, 12, 15
# Protocol: FIG. 1: Intratumoral magnesium administration improves adaptive anti-tumor immunity. (a) Schematic of experimental design. B1/6 mice, either immunized with OVA or left untreated, were inoculated subcutaneously with MC38-OVA tumor cells bilaterally on the flanks. From day 7, injection of 3 mM NaCl solution was applied in left flank tumor, whereas 3 mM MgCl2 solution was injected in contralateral tumor. This regimen was repeated every third day for a total of 8 cycles. (b) Tumor growth curves in non-immunized mice (n=20) (left panel), and immunized mice (n=19) (right panel). (c) Tumor growth curves in ±CD8 depleted mice (n=6-17). Results were pooled from 2 independent experiments, with n=6-12 mice each. (d) Absolute numbers of tumor-infiltrating CD8^+ T cells. (e) Number of tumor-infiltrating CD8^+ T cells positive for Ki67 (left panel), Granzyme B (middle panel) and CD25 (right panel). (f) Cell number of tumor-infiltrating CD8^+ T cells expressing PD-1 and Tim3. (g) Schematic of experimental design. B1/6 mice, immunized with OVA, were inoculated subcutaneously with MC38-OVA tumor cells unilaterally on the flank. From day 5, intratumoral injections of either 3 mM NaCl or 3 mM MgCl2 were initiated, and repeated every third day for 8 cycles. Mice were additionally injected with 200 μg i.p. of isotype control (IgG2a) or anti-PD-1 Ab on day 9, 12, and 15. […]
compound,measurement,setting,value
"[Mg+2] [Mg^2+, Magnesium]",Phosphorylation of focal adhesion kinase (FAK),[1],decreased
same,Host survival,MC38-OVA tumor cells,significantly improved animal survival
same,Tumor growth,MC38-OVA tumor cells,improving immune control significantly

# Source: patent US20240010726A1, “LFA-1 SIGNALLING MEDIATOR FOR USE IN CANCER THERAPY” (Universität Basel, priority 2020, published 2024)
